Experimental data: PubChem BioAssay AID248 (DTP/NCI, 2004)
Inconclusive results and toxic doses are left out. Rule as the data show it: active = T/C of 150% or more; inactive = T/C below 125%.

System: L1210 leukemia ip in BDF1 mice, survival T/C
Test: NCI In Vivo Anticancer Drug Screen. Data for tumor model L1210 Leukemia (intraperitoneal) in B6D2F1 (BDF1) mice
Conditions: endpoint: mean survival time, higher = longer survival
Outline: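 Tumor cells were implanted, animals were treated, and survival was followed. The result divides the treated measurement by the vehicle-control measurement.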

[1] = dose: 100.0 mg/kg/injection, schedule: Q01DX001 (ip), vehicle: other
[2] = dose: 200.0 mg/kg/injection, schedule: Q01DX001 (ip), vehicle: other
[3] = dose: 400.0 mg/kg/injection, schedule: Q01DX001 (ip), vehicle: other

Measured: T/C

O=C(O)c1cccc([N+](=O)[O-])c1[N+](=O)[O-]
inactive: dose: 50.0 mg/kg/injection, schedule: Q04DX003 (ip), vehicle: Klucel (hydroxypropylcellulose) (HPC) 94 % of control | dose: 100.0 mg/kg/injection, schedule: Q01DX001 (ip), vehicle: carboxymethylcellulose (CMC) 95 % of control | dose: 100.0 mg/kg/injection, schedule: Q04DX003 (ip), vehicle: Klucel (hydroxypropylcellulose) (HPC) 92 % of control | dose: 200.0 mg/kg/injection, schedule: Q01DX001 (ip), vehicle: carboxymethylcellulose (CMC) 93 % of control | dose: 200.0 mg/kg/injection, schedule: Q04DX003 (ip), vehicle: Klucel (hydroxypropylcellulose) (HPC) 103 % of control | dose: 400.0 mg/kg/injection, schedule: Q01DX001 (ip), vehicle: carboxymethylcellulose (CMC) 93 % of control | dose: 400.0 mg/kg/injection, schedule: Q04DX003 (ip), vehicle: Klucel (hydroxypropylcellulose) (HPC) 92 % of control

CC(C)C1(C(C)C)NC(=O)NC1=O
inactive: [1] 98 % of control | dose: 100.0 mg/kg/injection, schedule: Q01DX009 (ip), vehicle: other 101 % of control | dose: 100.0 mg/kg/injection, schedule: Q04DX003 (ip), vehicle: other 102 % of control | [2] 98 % of control | dose: 200.0 mg/kg/injection, schedule: Q01DX009 (ip), vehicle: other 106 % of control | dose: 200.0 mg/kg/injection, schedule: Q04DX003 (ip), vehicle: other 98 % of control | [3] 106 % of control | dose: 400.0 mg/kg/injection, schedule: Q01DX009 (ip), vehicle: other 107 % of control | dose: 400.0 mg/kg/injection, schedule: Q04DX003 (ip), vehicle: other 100 % of control

CC(C)C(=O)OCC1OC(n2cnc3c(=S)nc[nH]c32)C(OC(=O)C(C)C)C1OC(=O)C(C)C (stereo unspecified)
inactive: dose: 2.5 mg/kg/injection, schedule: Q01DX Z (oral), vehicle: carboxymethylcellulose (CMC) 101 % of control | dose: 5.0 mg/kg/injection, schedule: Q01DX Z (oral), vehicle: carboxymethylcellulose (CMC) 95 % of control | dose: 10.0 mg/kg/injection, schedule: Q01DX Z (oral), vehicle: carboxymethylcellulose (CMC) 97 % of control | dose: 20.0 mg/kg/injection, schedule: Q01DX Z (oral), vehicle: carboxymethylcellulose (CMC) 100 % of control

CC12C=CC(CC1)C2(C)C (stereo unspecified)
inactive: dose: 100.0 mg/kg/injection, schedule: Q01DX009 (ip), vehicle: saline 95 % of control | dose: 200.0 mg/kg/injection, schedule: Q01DX009 (ip), vehicle: saline 92 % of control

Clc1ccc(Cl)c(Nc2ccnc(SCc3ccccc3)n2)c1
inactive: dose: 100.0 mg/kg/injection, schedule: Q01DX Z (ip), vehicle: methylcellulose (MC) 92 % of control | dose: 200.0 mg/kg/injection, schedule: Q01DX Z (ip), vehicle: methylcellulose (MC) 88 % of control

Cc1c(C)c2cc(Br)ccc2[nH]c1=O
inactive: [1] 103 % of control | [2] 97 % of control | [3] 97 % of control

CC(C)([NH-])CO.CC(C)([NH-])CO.[Cl][Cd][Cl]
inactive: dose: 3.13 mg/kg/injection, schedule: Q01DX009 (ip), vehicle: saline sonified 98 % of control | dose: 5.0 mg/kg/injection, schedule: Q01DX009 (ip), vehicle: saline 96 % of control | dose: 6.25 mg/kg/injection, schedule: Q01DX009 (ip), vehicle: saline sonified 96 % of control | dose: 6.25 mg/kg/injection, schedule: Q04DX003 (ip), vehicle: saline sonified 95 % of control | dose: 10.0 mg/kg/injection, schedule: Q01DX009 (ip), vehicle: saline 100 % of control | dose: 10.0 mg/kg/injection, schedule: Q04DX003 (ip), vehicle: alcohol 93 % of control | dose: 12.5 mg/kg/injection, schedule: Q01DX009 (ip), vehicle: saline sonified 98 % of control | dose: 12.5 mg/kg/injection, schedule: Q04DX003 (ip), vehicle: saline sonified 92 % of control | dose: 20.0 mg/kg/injection, schedule: Q04DX003 (ip), vehicle: alcohol 89 % of control
